# Structures can show the parent of a compound that is named as a salt. Where two headings read alike, the source gives them in different places.
# Experiments:
# [1] = test system: rats with unilateral 6-OHDA lesions; assay: Rotation response in 6-OHDA rats after transdermal delivery; assay type: in vivo, rat
# Protocol: We have used rats with unilateral 6-OHDA lesions to assess compound 10 for its ability to induce rotation after transdermal administration [for details on the model, see the description under example 7]. Three groups of six animals were treated with different doses of compound 10 administered transdermally. Compound 10 (24 mg) was suspended in a mixture of 0.02% ascorbic acid and 20% ethanol in saline (9 mL); the resulting suspension was diluted with dimethyl sulfoxide (0.45 mL). The appropriate amount of this formulation was applied to the ears of the animals. The ears were rubbed gently before the rotation response of the animals was assessed over 3 h. […]
# 6-OHDA rats = assay: Reversal of L-DOPA-induced dyskinesias in 6-OHDA rats (AIMS); assay type: in vivo, rat
# From the text: Animals were observed on Days 1, 3 and 5 and AIMS were scored. The day 5 scores were then used to separate the animals into three groups of 6 animals each. Group 1 continued with daily L-DOPA treatment. […] Treatment continued daily for 10 days and the amount of dyskinesia was scored on days 1, 5, 9 and 10.
# human D2 receptor = molecular target: T1, human D2 receptor (Homo sapiens, UniProt P14416); assay: D2 cAMP assay; assay type: cell-based
# T1 construct: expressed in transfected cells; host or cells: CHO cells
# Protocol: The ability of the compounds to either stimulate or inhibit the D2 receptor mediated inhibition of cAMP formation in CHO cells transfected with the human D2 receptor was measured as follows. Cells were seeded in 96 well plates at a concentration of 8000 cells/well 3 days prior to the experiment. On the day of the experiment the cells were washed once in preheated G buffer (1 mM MgCl2, 0.9 mM CaCl2, 1 mM IBMX in PBS) and the assay was initiated by addition of 100 micro-1 of a mixture of 1 micro-M quinpirole, 10 microM forskolin and test compound in G buffer (antagonism) or 10 micro-M forskolin and test compound in G buffer (agonism).
# [2] = test system: unilaterally lesioned 6-OHDA rats; assay type: in vivo, rat
# Protocol: Animals were generated as described under example 7. Four groups of animals were dosed with various doses of compound 10 (group 1, 1 microg/kg; group 2, 10 microg/kg; group 3, 25 microg/kg; group 4, 50 microg/kg). In all cases, compound 10 was administered in one of the nostrils in a volume of 20 microL of a solution of the appropriate concentration in 20% ethanol in 0.7% aqueous sodium chloride containing 0.02% ascorbic acid. The drug solution was applied to one of the nostrils and the nose was gently massaged to ensure distribution of the administered solution over the nasal mucosa. The degree of rotation behaviour of the animals was recorded over the next 3 hours.
# [3] = molecular target: T2, human recombinant D1 receptor (Homo sapiens, UniProt P21728); assay: D1 cAMP assay; assay type: cell-based
# T2 construct: expressed in transfected cells
# Protocol: The ability of the compounds to either stimulate or inhibit the D1 receptor mediated cAMP formation in CHO cells stably expressing the human recombinant D1 receptor was measured as follows. Cells were seeded in 96-well plates at a concentration of 11000 cells/well 3 days prior to the experiment.
# [4] = test system: rats with unilateral 6-OHDA lesions; assay: Dyskinesia model with naive 6-OHDA rats (AIMS)
# [5] = test system: rats with unilateral 6-OHDA lesions; assay: D1/D2 dissection, rotation response in rats with unilateral 6-OHDA lesions; assay type: in vivo, rat
# From the text: Rats weighing 200-250 g were subjected to unilateral 6-OHDA lesions. […] Nemonapride is a D2 antagonist that blocks the D2 receptors, therefore any observed rotations would be dependent upon activity at the D1 receptors.
# MPTP treated marmosets = assay: Anti-parkinsonian effects in MPTP-treated common marmosets; assay type: in vivo, common marmoset; parameters: disability score (120 min) / disability score (180 min) / disability score (240 min) / disability score (300 min) / disability score (360 min) / disability score (420 min) / disability score (60 min): scale not given here
# Protocol: The experiments were conducted using 6 MPTP treated marmosets (2.0 mg/kg daily for up to 5 consecutive days dissolved in sterile 0.9% saline solution). All the animals had previously been treated with L-DOPA (12.5 mg/kg p.o., plus carbidopa 12.5 mg/kg p.o.) administered daily for up to 30 days in order to induce dyskinesia. […] Domperidone was administered 60 min before any of the test compounds. Domperidone is an antidopaminergic drug that suppresses nausea and vomiting. Locomotor activity was assessed using test cages that are comprised of 8 photo-electric switches comprised of 8 infra-red beams which are strategically placed in the cage and interruption of a beam is recorded as one count. […] The assessment of motor disability was performed by a trained observer blinded to the treatment.
# The dose chosen for this challenge is at the top of the dose response curve for this drug.
# [6] = test system: rats with unilateral 6-OHDA lesions; assay: Rotation response in 6-OHDA rats after buccal delivery; assay type: in vivo, rat
# reserpinesed rats = assay: Reversal of reserpine-induced hypomotility in rats; assay type: in vivo, rat; settings: for activity count: reserpine 5 mg/kg SC 23-24 h before, over 3 hours
# Protocol: Rats weighing ca. 200 g were treated with reserpine (5 mg/kg subcutaneously as a solution in 20% aqueous solutol for which pH was adjusted to 4 with methanesulfonic acid). […] Group 1: treated with 20% ethanol in 0.7% aqueous sodium chloride subcutaneously.
# [7] = read-out: intrinsic activity (efficacy)
# T2 sequence (P21728 whole entry): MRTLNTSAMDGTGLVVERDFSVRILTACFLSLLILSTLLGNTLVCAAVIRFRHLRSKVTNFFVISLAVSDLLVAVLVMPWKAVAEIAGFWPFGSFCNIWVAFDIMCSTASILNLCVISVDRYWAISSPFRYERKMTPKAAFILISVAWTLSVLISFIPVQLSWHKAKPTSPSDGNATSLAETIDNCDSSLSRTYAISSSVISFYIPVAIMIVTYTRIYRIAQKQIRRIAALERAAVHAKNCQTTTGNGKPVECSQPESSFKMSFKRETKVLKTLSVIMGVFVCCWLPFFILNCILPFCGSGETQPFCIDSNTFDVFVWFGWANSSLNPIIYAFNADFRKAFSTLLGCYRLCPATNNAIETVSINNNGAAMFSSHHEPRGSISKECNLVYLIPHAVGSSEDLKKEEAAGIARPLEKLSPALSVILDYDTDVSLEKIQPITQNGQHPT
# T1 sequence (P14416 whole entry): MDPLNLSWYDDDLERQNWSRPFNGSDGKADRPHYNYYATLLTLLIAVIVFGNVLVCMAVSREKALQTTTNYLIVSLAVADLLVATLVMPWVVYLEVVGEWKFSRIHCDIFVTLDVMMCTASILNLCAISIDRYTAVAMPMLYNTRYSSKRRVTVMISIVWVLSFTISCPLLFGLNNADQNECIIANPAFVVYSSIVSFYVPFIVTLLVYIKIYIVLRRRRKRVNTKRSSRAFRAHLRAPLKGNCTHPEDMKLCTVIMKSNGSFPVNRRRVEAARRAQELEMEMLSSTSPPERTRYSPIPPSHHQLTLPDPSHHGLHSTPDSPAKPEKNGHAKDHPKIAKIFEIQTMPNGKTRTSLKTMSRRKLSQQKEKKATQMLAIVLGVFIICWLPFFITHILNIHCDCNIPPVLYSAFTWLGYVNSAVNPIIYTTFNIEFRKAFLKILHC
structure (smiles),measurement,setting,value
"CCCN1CCC[C@@H]2Cc3c(ccc(O)c3O)C[C@H]21 [compound 10, (4aR,10aR)-1-n-Propyl-1,2,3,4,4a,5,10,10a-octahydro-benzo[g]quinoline-6,7-diol hydrobromide]",mean number of rotations over 3 h,[1]; 0.127 mg/kg transdermally (ears),482
same,mean number of rotations over 3 h,[1]; 0.254 mg/kg transdermally (ears),837
same,mean number of rotations over 3 h,[1]; 0.381 mg/kg transdermally (ears),1448
same,induction of circling behavior,"[1]; transdermal delivery, three dose groups",induced circling behavior in all three groups
same,dyskinesias versus other groups (two-way repeated measures ANOVA),"6-OHDA rats; L-DOPA-primed 6-OHDA rats, 10 days treatment",significantly fewer dyskinesias than both the pramipexole group and the L-DOPA/Benserazide group
same,"mean AIM score (days 1, 5, 9, 10)","6-OHDA rats; after 7 days L-DOPA/Benserazide priming, once daily days 1-10: L-DOPA/Benserazide 6/15 mg/kg SC, compound 10 0.0013 mg/kg SC, pramipexole […] SC",44
same,EC50,human D2 receptor,0.11 nM
same,Emax,human D2 receptor; [7],100%
same,mean number of rotations (0-3 h),"[2]; group 1, intranasal 1 microg/kg",401
same,mean number of rotations (0-3 h),"[2]; group 2, intranasal 10 microg/kg",691
same,mean number of rotations (0-3 h),"[2]; group 3, intranasal 25 microg/kg",1286
same,mean number of rotations (0-3 h),"[2]; group 4, intranasal 50 microg/kg",2122
same,EC50,[3],15.5 nM
same,Emax,[3]; [7],100%
same,mean AIM score (day 19),"[4]; group 1: compound 10 0.0013 mg/kg SC days 1-14, then compound 10 0.0013 mg/kg SC days 15-19",25
same,mean AIM score (day 19),"[4]; group 2: L-DOPA/Benserazide 6/15 mg/kg SC days 1-14, then compound 10 0.0013 mg/kg SC days 15-19",18
same,mean AIM score (day 19),"[4]; group 3: apomorphine 1 mg/kg SC days 1-14, then compound 10 0.0013 mg/kg SC days 15-19",39
same,dyskinesia score (AIMS),"[4]; once daily SC, scored days 1-12",about 30
same,MED (minimum effective dose to induce rotation),"[5]; dosed SC, 6-OHDA rats",0.65 µg/kg
same,MEDNemonapride (MED to overcome Nemonapride block),"[5]; dosed SC, 6-OHDA rats, * = rotations could not be blocked by SCH23390",1.3 µg/kg
same,mixed D1/D2 ratio,"[5]; subcutaneous, 6-OHDA rat rotation model",about 2
same,disability score (60 min),MPTP treated marmosets; 0.001 mg/kg SC,14.3
same,disability score (120 min),MPTP treated marmosets; 0.001 mg/kg SC,2.3
same,disability score (180 min),MPTP treated marmosets; 0.001 mg/kg SC,2.5
same,disability score (240 min),MPTP treated marmosets; 0.001 mg/kg SC,3.0
same,disability score (300 min),MPTP treated marmosets; 0.001 mg/kg SC,2.5
same,disability score (360 min),MPTP treated marmosets; 0.001 mg/kg SC,6.5
same,disability score (420 min),MPTP treated marmosets; 0.001 mg/kg SC,8.5
same,disability score (60 min),MPTP treated marmosets; 0.01 mg/kg SC,10.0
same,disability score (120 min),MPTP treated marmosets; 0.01 mg/kg SC,2.2
same,disability score (180 min),MPTP treated marmosets; 0.01 mg/kg SC,2.0
same,disability score (240 min),MPTP treated marmosets; 0.01 mg/kg SC,2.2
same,disability score (300 min),MPTP treated marmosets; 0.01 mg/kg SC,2.7
same,disability score (360 min),MPTP treated marmosets; 0.01 mg/kg SC,2.3
same,disability score (420 min),MPTP treated marmosets; 0.01 mg/kg SC,2.7
same,effect on locomotor activity and motor disability,"MPTP treated marmosets; L-DOPA 12.5 mg/kg p.o., compound 10 0.001 or 0.01 mg/kg SC",dose-related increase in locomotor activity and reversal of motor disability
same,mean number of rotations over 3 h,[6]; 0.1 mg/kg buccally,1203
same,induction of rotation,"[6]; apomorphine subcutaneous, compound 10 buccal",induced circling behavior
same,reversal of reserpine-induced hypomotility,reserpinesed rats; administered buccally,reversed the hypomotility
same,reversal of reserpine-induced hypomotility,reserpinesed rats; administered subcutaneously,reversed the reserpine-induced hypomotility
same,activity count,reserpinesed rats; 0.05 mg/kg buccally,378
same,activity count,reserpinesed rats; 0.10 mg/kg buccally,533
same,activity count,"reserpinesed rats; apomorphine 1 mg/kg SC, compound 10 0.01 mg/kg SC, controls: vehicle 486, reserpine/vehicle 17",308

# — patent publication US20120077836A1, “METHODS OF ADMINISTERING (4AR,10AR)-1-N-PROPYL-1,2,3,4,4A,5,10,10A-OCTAHYDROBENZO [G] QUINOLINE-6,7-DIOL AND RELATED COMPOUNDS ACROSS THE ORAL MUCOSA, THE NASAL MUCOSA OR THE SKIN AND PHARMACEUTICAL COMPOSITIONS THEREOF” (priority 2009, published 2012)
